Experimental data from ChEMBL document CHEMBL1201862, “PubChem BioAssay data set” (2004).
Calls of active or inactive are those of the source. No stated cut-off is given here; in the data, actives have a measured IC50 and inactives only a lower limit.

Molecular target: Envelope glycoprotein gp160 (Human immunodeficiency virus 1, UniProt Q6QLK5)
Test: inhibitors of HIV fusion peptide binding, primary screen, biochemical, uHTS, fluorescence dequenching (AID 1986)

Chain of Envelope glycoprotein gp160 (Q6QLK5 whole entry, the tested form may be a part): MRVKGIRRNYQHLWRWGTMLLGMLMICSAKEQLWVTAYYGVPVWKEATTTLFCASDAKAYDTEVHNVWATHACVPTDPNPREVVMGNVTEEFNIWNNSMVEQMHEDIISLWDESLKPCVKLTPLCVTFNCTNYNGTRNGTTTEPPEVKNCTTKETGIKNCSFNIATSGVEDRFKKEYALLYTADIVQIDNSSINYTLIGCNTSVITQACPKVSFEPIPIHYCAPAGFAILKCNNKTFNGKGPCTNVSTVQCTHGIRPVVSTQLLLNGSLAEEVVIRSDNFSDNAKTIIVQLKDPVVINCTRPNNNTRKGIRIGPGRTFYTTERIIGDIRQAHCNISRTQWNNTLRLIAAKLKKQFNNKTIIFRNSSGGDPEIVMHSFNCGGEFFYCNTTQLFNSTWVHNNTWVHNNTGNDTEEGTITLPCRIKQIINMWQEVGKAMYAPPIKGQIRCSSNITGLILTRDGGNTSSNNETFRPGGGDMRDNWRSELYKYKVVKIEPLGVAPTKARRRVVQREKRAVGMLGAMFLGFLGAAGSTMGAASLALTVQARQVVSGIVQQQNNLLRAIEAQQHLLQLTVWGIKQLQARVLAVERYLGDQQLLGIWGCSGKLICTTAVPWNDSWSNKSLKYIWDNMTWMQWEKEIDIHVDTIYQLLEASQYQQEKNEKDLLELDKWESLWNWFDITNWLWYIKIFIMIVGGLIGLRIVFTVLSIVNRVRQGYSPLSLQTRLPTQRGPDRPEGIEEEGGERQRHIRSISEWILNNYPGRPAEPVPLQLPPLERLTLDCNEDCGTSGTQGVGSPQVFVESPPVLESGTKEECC

SMILES | IC50
O=C(O)COc1ccccc1/C=N/NC(=O)CSc1nnc(SCc2cccc3ccccc23)s1 | 26.6 µM (active)
COc1cc(/C=C2\C(=N)N3N=C(S(C)(=O)=O)SC3=NC2=O)ccc1OC(=O)c1ccco1 | 21.9 µM (active)
